This is an account of results in patent US20090082314A1, “Targeting Prodrugs for the Treatment of Gastrointestinal Diseases” (The Provost Fellows and Scholars of the College of the, priority 2007, published 2009).

A short description of data set [1]: Intramolecular lactamization (cyclization) kinetics of amino prodrugs in aqueous solution, HPLC. The format is physicochemical. As to conditions: 37° C., pH not given, read-out: calculated half-life of lactamization (T1/2=0.693/kobs) (converted). The protocol:
Release of steroid in vivo from the prodrugs hinges upon the cyclization of the amino steroid product of azo-reductase activity. The cyclization rates of the amino derivatives of cortisone A and B were monitored in aqueous solution at various pH values and at 37° C. by measuring remaining compound by HPLC along with the evolution of cortisone.
The first order rate constant for disappearance can be obtained from a plot of the natural log of remaining ester versus time. The half-life can be calculated (T1/2=0.693/kobs).

In another data set the test system is DSS-induced colitis mice. Description: Drug efficacy in DSS-induced colitis mice (body weight loss, DAI, colon length). The format is in vivo, BALB/c mice. The settings on record: for body weight loss versus vehicle only controls / severity of disease (DAI score) versus vehicle alone / colon shortening versus vehicle alone: 5 mg/Kg oral twice a day, 5% DSS; for body weight loss versus vehicle only controls: FIG. 15, one-way ANOVA with Tukey post test; for severity of disease (DAI score) versus vehicle alone: FIG. 16, one-way ANOVA with Tukey post test; for colon shortening versus vehicle alone: FIG. 17, one-way ANOVA with Tukey post test. The protocol: BALB/c strain mice were from the Bioresources Unit (Trinity College Dublin). Mice were housed in individually ventilated and filtered cages under positive pressure (Tecniplast, Nothants, UK). Food and water were supplied ad libitum. All animal experiments were performed in compliance with Irish Department of Health and Children regulations and approved by the Trinity College Bioresources ethical review board.
All in vivo experiments were performed with six mice per group. […] Colitis scores were analyzed by Mann-Whitney test. P values <0.05 were considered significant. Results on the DIA, C/B and T/B MPO were expressed as means±S.E.
DSS ([…]; MP Biomedicals, OH) was dissolved in the drinking water of the mice. Fresh DSS solution was provided every second day. BALB/c mice were exposed to 5% DSS for six days. The mice were checked every day for morbidity and weight recorded. Induction of colitis was determined by weight loss, fecal blood and, upon autopsy, length of colon. Blood in feces was detected using a Hemdetect occult blood detection kit (Dipro, Austria).
To quantify induction of colitis, a disease activity index (DAI) was determined based on previous studies of DSS-induced colitis (Cooper 1993). DAI was calculated for each mouse daily based on body weight loss, occult blood and stool consistency/diarrhea. A score of […] was given for each parameter, with a maximum DAI score of 12. Score 0, No weight loss, normal stool, no blood; Score 1, 1-3% weight loss; Score 2, 3-6% weight loss, loose stool, blood visible in stool; Score 3, 6-9% weight loss; Score 4, […]. Loose stool was defined as the formation of a stool that readily becomes paste upon handling. Diarrhea was defined as no stool formation. Gross bleeding was defined as fresh blood on fur around the anus with extensive blood in the stool,
At autopsy the length of the colon was measured and a 1 cm section of colon was fixed in 10% formaldehyde-saline. H&E-stained sections were grading based on a scoring system modified from a previous study (Siegmund 2001). Histology scoring was performed in a blinded fashion. A combined score of inflammatory cell infiltration and tissue damage was determined as follows: Cell infiltration: Score 0, Occasional inflammatory cells in the LP; 1, Increased infiltrate in the LP predominantly at the base of crypts; 2, Confluence of inflammatory infiltrate extending into the mucosa; 3, Trans-mural extension of infiltrate. Tissue Damage Score 0, No mucosal damage; 1, Partial (up to 50%) loss of crypts in large areas; 2, Partial to total 50-100% loss of crypts in large areas, epithelium intact; 3, Total loss of crypts in large areas and epithelium lost.
The DSS induced colitis mice weighting about 18-20 grams were allowed 5% DSS water ad libitum and 100 μL of prednisolone and prodrug 2 in 1% solution cremophor and ethanol in water suspension (equivalent to 5 mg of prednisolone per Kg or mouse body weight) was orally administrated, twice a day (every twelve hours) to the colitis mice. Six days after the prednisolone and prodrugs treatments, the mice were sacrificed by cervical dislocation. The distal colon segment and the thymus were removed and washed to remove contents of the colon.
One centimetre of the distal colon segment and the fresh weight of the thymus were measured to obtain the ratios of distal colon weight and thymus weight to body weight (C/B and T/B respectively). The damage of the colon specimens were scored as describe in materials and methods. The distal segments were frozen by liquid nitrogen kept at −80° C. until assayed for myeloperoxidase activity (MPO).
Anti-inflammatory effects were studied by comparison of the distal colon length between healthy mice, untreated mice, prednisolone treated mice and prodrug treated mice. IBD causes shortering of the colon. […]

The test system of another data set is thymus. Description: Systemic side effects: thymus weight to body weight ratio in DSS-induced colitis mice. The settings on record: for T/BW ratio (thymus weight:body weight) versus vehicle-treated mice: 5 mg/Kg oral twice a day, 5% DSS, FIG. 18, one-way ANOVA with Tukey post test. The format is in vivo, BALB/c mice. The protocol:
The DSS induced colitis mice weighting about 18-20 grams were allowed 5% DSS water ad libitum and 100 μL of prednisolone and prodrug 2 in 1% solution cremophor and ethanol in water suspension (equivalent to 5 mg of prednisolone per Kg or mouse body weight) was orally administrated, twice a day (every twelve hours) to the colitis mice. Six days after the prednisolone and prodrugs treatments, the mice were sacrificed by cervical dislocation. The distal colon segment and the thymus were removed and washed to remove contents of the colon. One centimetre of the distal colon segment and the fresh weight of the thymus were measured to obtain the ratios of distal colon weight and thymus weight to body weight (C/B and T/B respectively). The damage of the colon specimens were scored as describe in materials and methods. The distal segments were frozen by liquid nitrogen kept at −80° C. until assayed for myeloperoxidase activity (MPO). Systemic side effects were study by comparison of the thymus weight and body weight ratio (Hideki Yano 2002) between health mice, untreated mice, prednisolone treated mice and prodrug treated mice, due to the fact that an increase on the concentration of steroid in the bloodstream provokes suppression on the activity of the thymus and the consequent reduction of its weight.

For data set [2] the following is noted: neutrality, 39° C.; cited from earlier work.
For data set [3] the following is noted: rat intestinal perfusate; cited from earlier work.
For data set [4] the following is noted: after 24 h at pH 7 (45° C.); cited from earlier work.
Where [5] appears, read: 5 mg/Kg, Student's t-test, original analysis.

As to `CC12CCC(=O)C=C1CCC1C2C(O)CC2(C)C1CCC2(O)C(=O)COC(=O)Cc1ccccc1N` (stereo not drawn) [prodrug A], the half-life in data set [1] was 2.2 h.

Regarding `C[C@]12C=CC(=O)C=C1CC[C@@H]1[C@@H]2[C@@H](O)C[C@@]2(C)[C@H]1CC[C@]2(O)C(=O)CO` [Prednisolone], in the data set with DSS-induced colitis mice, the “body weight loss versus vehicle only controls” value was “weight loss was decreased”, the “severity of disease (DAI score) versus vehicle alone” value is “significantly reduced” and the “colon shortening versus vehicle alone” value was “significantly less shortening”. For the same compound, in the data set with thymus, the “T/BW ratio (thymus weight:body weight) versus vehicle-treated mice” value is listed as “significant reduction in T/BW ratio”. In the data set on thymus (setting [5]), the “thymus:BW ratio versus Untreated mice” value is “significant reduction in thymus:BW ratio”.

With `COC(=O)CCc1ccccc1N` [methyl 3-(2-aminophenyl)propionate], the “apparent first-order rate constant of spontaneous cyclization” value in data set [2] was 0.0002 s⁻¹.

Regarding `CC12C=CC(=O)C=C1CCC1C2C(O)CC2(C)C1CCC2(O)C(=O)COC(=O)CCc1ccccc1/N=N/c1ccc(O)c(C(=O)O)c1` (stereo not drawn) [Mutual Prodrug 2, 5-(2-{2[2-(11,17-dihydroxy-10,13-dimethyl-10,13-dimethyl-3-oxo-6,7,8,9,10,11,12,13,14,15,16,17-dodecahydro-3H-cyclopenta[a]phenanthrene-17-yl)-2-oxo-ethoxycarbonyl]ethyl}-phenylazo}-2-hydroxy-benzoic acid], in the data set on DSS-induced colitis mice, the “body weight loss versus vehicle only controls” value is given as “weight loss was decreased”, the “severity of disease (DAI score) versus vehicle alone” value was “significantly reduced” and the “colon shortening versus vehicle alone” value is recorded as “significantly less shortening”. Besides, in the data set on DSS-induced colitis mice (setting [5]), the colon length entry is given as “significantly longer colon than the PRED”. Further, the “T/BW ratio (thymus weight:body weight) versus vehicle-treated mice” value in the data set on thymus is “not statistically different”.

Regarding `CC12CCC(=O)C=C1CCC1C2C(O)CC2(C)C1CCC2(O)C(=O)COC(=O)CCc1ccccc1N` (stereo not drawn) [prodrug B], the half-life in data set [1] is 1.4 h.

Regarding `C[C@]12CCC(=O)C=C1CC[C@@H]1[C@@H]2[C@@H](O)C[C@@]2(C)[C@H]1CC[C@]2(O)C(=O)COC(=O)CCC(=O)O` [hydrocortisone-21-succinate], the “first-order rate constant for hydrolysis” value in data set [3] is 0.003 min⁻¹. Also, in data set [4], the disappearance result is given as “less than 5%”.
